In patent US12274689B2, “Compound for the management of feline diabetes” (INCREVET, INC., priority 2019, dated 2025):

What was measured:
[1] = tested on: cats with experimental diabetes; conditions: subcutaneous injection of a suspension in olive oil; Lukens et al. 1943, 1961; cited from earlier work
[2] = tested on: ZDF rats; assay: plasma glucose in male Zucker Diabetic Fatty rats, daily oral dosing (study 338); assay type: in vivo; conditions: ZDF rats; after 3 weeks; groups receiving 0.3, 1.0 and 3.0 mg kg^−1 (p<0.05, <0.01 and <0.01)

| SMILES | hyperglycemia in diabetic cats [1] | plasma glucose levels compared to vehicle control [2] |
| --- | --- | --- |
| O=C(CCc1ccc(O)cc1)c1c(O)cc(O)cc1O[C@@H]1O[C@H](CO)[C@@H](O)[C@H](O)[C@H]1O [phlorizin] | dramatic reduction of hyperglycemia | – |
| OC[C@H]1O[C@@H](c2ccc(Cl)c(Cc3ccc(OCCOC4CC4)cc3)c2)[C@H](O)[C@@H](O)[C@@H]1O [EGT0001474, bis-proline complex of (2S,3R,4R,5S,6R)-2-(4-chloro-3-(4-(2-cyclopropoxyethoxy)benzyl)phenyl)-6-(hydroxymethyl)tetrahydro-2H-pyran-3,4,5-triol] | – | significantly lower |
